We go through one substance from patent US11419902B2, “Compositions comprising bacterial strains” (4D Pharma Research Limited, priority 2018, dated 2022).

Holding throughout (assay type): cell-based
For assay [1], the system named is HT29 colorectal cancer cell line. Nature of the assay: Clonogenic survival of HT29 cell line. The conditions noted are these: HT29, relative to both negative controls (cell line only, and YCFA+ +DMSO). How it is done: Cells were trypsinized and 200 cells/well were seeded in 12-well plates. After 48 h cells were treated with the appropriate drugs in absence (YCFA+) or presence of 10% bacterial supernatant and were re-fed every three days. On day 21 after seeding, cells were fixed in ice-cold methanol and stained with Crystal Violet blue. […] were counted and survival fraction was calculated as number of colonies divided by the number of plated cells (plating efficiency) of treated divided by the plating efficiency of control.
The effects of the following treatments were assessed on the HT29 colorectal cancer cell line (V600E oncogenic mutation in BRAF): (1) MRx0029; (2) Vemurafenib (VEMU) in YFCA+ medium; (3) VEMU and MRx0029; (4) Azacytidine-C (Aza-c) in YCFA+ medium; (5) Aza-c and MRx0029; (6) VEMU, Aza-c and MRx0029.

Another assay has as its system IL-8. The assay is described as follows: IL-8 secretion by the HT29 cell line co-incubated with bacteria (ELISA). The conditions noted are these: differentiated HT29 cells, bacteria 10^7 CFU 2 hr, with THP1 conditioned media or alone. As for the experimental part:
HT29 cells were plated in 12 well plates at a density of 200,000 cells/well. Cells were being differentiated for 10 days (media change every 2 days). The day of the experiment cells were placed in the anaerobic hood and washed with anaerobic equilibrated HANKs solution. Then 900 ul of growth media (without FBS and antibiotics) was added to the cells. Bacteria cells were resuspended in of growth media (without FBS and antibiotics) and were then added at 10^7 CFU in total in 100 ul. Cells were co-incubated with bacteria for 2 hr in an anaerobic hood. Afterwards cells were washed in growth media without FBS but containing antibiotics. Cells were left to rest in 1 ml of THP1 condition media for 24 h. After 24 h incubation the supernatant was collected and spun down at 10,000 g for 3 min and 4° C. Samples were frozen at −80° C. until further use.
THP1 condition media: THp1 were seeded on T25 flask at density of 4×10^6/flask. Cells were treated in RPMI media (contain 2 mM L-glutamine without FBS) with 1 ug/ml LPS or LPS+5 mM ATP (ATP added 3 hours after LPS). Cells were left to rest for 24 hr. Thereafter Condition Media (CM) was collected by spinning down the cells at 250 g for 5 min and RT. Different CMs were used to treat HT29 Cells. A small aliquot was frozen at […] for ELISA. […]
Background: An ELISA detects its analyte on a solid surface through an enzyme-linked reagent.

A further assay has as its system histone deacetylase. The assay is described as follows: Histone deacetylase activity in HT-29 cells. The conditions noted are these: 10% cell free supernatant, 48 hours. How it is done:
Cell free supernatants of stationary phase bacterial cultures were isolated by centrifugation and filtering in a 0.22 uM filter. HT-29 cells were used 3 days post confluence and stepped down in 1 mL DTS 24 hours prior to commencement of the experiment. The HT-29 cells were challenged with 10% cell free supernatant diluted in DTS and was is left to incubate for 48 hours. […] proteins were then extracted using the Sigma Aldrich […] extraction kit and samples were snap frozen prior to HDAC activity measurement. HDAC activity was assessed fluorometrically using the Sigma Aldrich (UK) kit.

For assay [2], the system named is neuron specific enolase (NSE)/enolase 2. Nature of the assay: Enolase 2 expression in SH-SY5Y cells (qPCR). The following applies: 10% bacterial supernatants 17 h, vs YCFA+ culture control. How it is done: SH-SY5Y were plated in 6 well plates at a density of 0.5×10^6 cells. After 24 h, cells were treated in differentiation medium (growth medium containing 1% FBS) with 10% bacterial supernatants or YCFA+ for 17 h. Cells were collected, and total RNA was isolated according to the RNeasy mini kit protocol (Qiagen). cDNA was made using the High Capacity cDNA reverse transcription kit (Applied Biosystems). Gene expression was measured by qPCR. GAPDH was used as internal control. Fold change was calculated according to the 2^(−ΔΔct) method. Primer sets used are listed as SEQ ID NOs: 2, 3, 13 and 14.
In general terms: In qPCR the cycle at which signal appears reflects the starting amount.

As to Megasphaera massiliensis MRx0029, in assay [1], the clonogenic survival entry was “decreased clonogenic survival”. In addition, the IL-8 secretion entry in the assay with IL-8 is recorded as “increased IL-8 secretion”. In addition, the “levels of histone deacetylase activity” value in the assay with histone deacetylase is “able reduce the levels of histone deacetylase activity”. Moreover, the “Enolase 2 expression” value in assay [2] is listed as “statistically-significant effect of suppressing”.
